Data on 92 compounds can be found in ChEMBL document CHEMBL1133658 (J Med Chem, 2000).

The target in the first assay is T1, Tubulin alpha chain (Sus scrofa, UniProt P02550). In words: Inhibition of tubulin polymerization interacting at the colchicine binding site.
T1 sequence (P02550 whole entry, looked up): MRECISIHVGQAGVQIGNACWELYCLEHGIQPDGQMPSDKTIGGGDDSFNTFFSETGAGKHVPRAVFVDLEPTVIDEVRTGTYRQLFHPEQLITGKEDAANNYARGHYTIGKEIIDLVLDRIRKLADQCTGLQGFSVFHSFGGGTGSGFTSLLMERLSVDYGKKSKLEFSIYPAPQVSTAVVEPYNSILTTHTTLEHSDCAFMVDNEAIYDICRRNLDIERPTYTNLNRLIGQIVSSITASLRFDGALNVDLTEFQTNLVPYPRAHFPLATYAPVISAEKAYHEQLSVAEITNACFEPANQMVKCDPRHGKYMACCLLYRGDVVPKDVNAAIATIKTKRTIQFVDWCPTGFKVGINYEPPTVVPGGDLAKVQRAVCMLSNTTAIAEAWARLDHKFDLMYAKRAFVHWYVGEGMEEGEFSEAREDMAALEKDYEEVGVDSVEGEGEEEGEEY
On to `Cc1cnc2nc(-c3cccc(F)c3)cc(O)c2c1`, for which the IC50 – broadly, the concentration that gives 50% inhibition – was 631 nM.

In the next assay the target is T1, Tubulin alpha chain.
On to `COc1cccc([C@@H]2CC(=O)c3cc4c(cc3N2)OCO4)c1`, for which it took 692 nM to reach half-maximal inhibition (IC50).

In turn, `COc1cc2c(c(OC)c1O)-c1ccc(SC)c(=O)cc1[C@@H](NC(=O)CC(C)=O)CC2` showed an IC50 of 3310 nM.

For `COc1ccc(-c2cc(O)c3c(C)ccnc3n2)cc1`, the IC50 is 8710 nM.

Compound `Cc1ccc(-c2cc(O)c3c(C)cc(C)nc3n2)cc1` gave an IC50 of 10000 nM.

Take `COc1cc2c(c(OC)c1OC)-c1ccc(SC)c(=O)cc1[C@@H](NCc1ccc(F)cc1)CC2`: the IC50 was 3240 nM.

Regarding `CCCC(=O)O[C@@H]1CCc2cc(OC)c(OC)c(OC)c2-c2ccc(SC)cc21`, the IC50 was 4790 nM.

Consider `COc1ccc(-c2cc(O)c3cc(C)cnc3n2)cc1`, for which the IC50 was 7760 nM.

`Cc1ccc2c(O)cc(-c3ccc(Br)s3)nc2n1` gave an IC50 of 1510 nM.

On to `COc1cc2c(c(OC)c1OC)-c1ccc(SC)c(=O)cc1[C@@H](NCc1ccc([N+](=O)[O-])cc1)CC2`, for which the IC50 is 2290 nM.

Compound `COc1cccc(-c2cc(O)c3ccccc3n2)c1` gave an IC50 of 1410 nM.

In turn, `COc1cccc(-c2cc(O)c3c(Cl)ccnc3n2)c1` showed an IC50 of 724 nM. This IC50 lies about 1.9-fold lower than the previous one.

`Cc1ccnc2nc(-c3cccc4ccccc34)cc(O)c12` showed an IC50 of 933 nM.

The compound `Cc1ccc2c(O)cc(-c3ccc(C)s3)nc2n1` gave an IC50 of 1700 nM.

For the compound `Cc1cc(C)c2c(O)cc(-c3cccc(F)c3)nc2n1`, half-maximal inhibition (IC50) required 741 nM. This IC50 is about 2.3-fold lower than that of the compound before.

With `Cc1ccc2c(O)cc(-c3cccc(Cl)c3)nc2n1`, the IC50 was 891 nM.

Consider `Nc1cccc(-c2cc(O)c3cc4c(cc3n2)OCO4)c1`, for which inhibition was half-maximal at 724 nM (IC50).

`Cc1ccc2c(O)cc(-c3ccc(Cl)s3)nc2n1`: half-maximal inhibition (IC50) was put at 1700 nM.

Compound `COc1ccc(CN[C@H]2CCc3cc(OC)c(OC)c(OC)c3-c3ccc(SC)c(=O)cc32)c(OC)c1OC` had an IC50 of 2290 nM.

`Cc1cc(C)c2c(O)cc(-c3cccc(Cl)c3)nc2n1` showed an IC50 of 776 nM.

As for `Cc1ccc2c(O)cc(-c3sccc3C)nc2n1`, half-maximal inhibition (IC50) was put at 2820 nM.

In the case of `COc1cccc(-c2cc(O)c3cc(N(C)C)ccc3n2)c1`, the IC50 is 380 nM.

In turn, `Oc1cc(-c2ccc(F)cc2)nc2ncc(Cl)cc12` had an IC50 of 15800 nM.

For the compound `Oc1cc(-c2cccc3ccccc23)nc2ncccc12`, the IC50 was 1100 nM.

Regarding `Cc1ccc2c(O)cc(-c3cccs3)nc2n1`, the IC50 was 6030 nM.

In the case of `COc1cc2c(c(OC)c1OC)-c1ccc(SC)c(=O)cc1[C@@H](NC(=O)C13CCC(C)(C(=O)O1)C3(C)C)CC2` (some centres not stated), 2400 nM corresponded to half-maximal inhibition (IC50). Compared with the last compound, the IC50 is about 2.5-fold lower.

`O=C(Oc1cccc(-c2cc(O)c3cc4c(cc3n2)OCO4)c1)c1ccccc1` showed an IC50 of 447 nM.

The compound `Cc1cnc2nc(-c3ccc(C)s3)cc(O)c2c1` gave an IC50 of 2690 nM. Against the preceding compound, the IC50 is about 6-fold higher.

`CCCC(=O)O[C@H]1CCc2cc(OC)c(OC)c(OC)c2-c2ccc(SC)cc21` had an IC50 of 2820 nM.

`Cc1cccc(-c2cc(O)c3cc(C)cnc3n2)c1` gave an IC50 of 1510 nM.

In turn, `COc1cc2c(c(OC)c1OC)-c1ccc(SC)c(=O)cc1[C@@H](OC(=O)C13CCC(C)(C(=O)O1)C3(C)C)CC2` (some centres not stated) showed an IC50 of 1410 nM.

As to `Oc1cc(-c2cccc(C(F)(F)F)c2)nc2cc3c(cc12)OCO3`, the IC50 is 813 nM.

For the compound `COc1cccc(-c2cc(O)c3ccc(C)nc3n2)c1`, the IC50 is 759 nM.

In turn, `Cc1ccnc2nc(-c3ccc(F)cc3)cc(O)c12` had an IC50 of 18200 nM.

`Cc1ccc(-c2cc(O)c3ccc(C)nc3n2)cc1` had an IC50 of 4900 nM. This IC50 is about 3.7-fold lower than that of the compound before.

`COc1cc2c(c(OC)c1OC)-c1ccc(SC)c(=O)cc1[C@@H](COC(=O)c1ccc(F)cc1)C2` gave an IC50 of 4470 nM.

`Cc1ccc(-c2cc(O)c3c(C)ccnc3n2)cc1`: the IC50 was 2880 nM.

Consider `COc1ccc2c(c1)CC=Cc1cc(OC)c(OC)c(OC)c1-2`, for which the IC50 is 1510 nM.

On to `COc1cccc(-c2cc(O)c3cccnc3n2)c1`, for which inhibition was half-maximal at 955 nM (IC50). Against the preceding compound, the IC50 is about 1.6-fold lower.

Regarding `COc1cc2c(c(OC)c1OC)-c1ccc(SC)c(=O)cc1[C@@H](COC(=O)c1ccccc1F)C2`, the IC50 is 3630 nM. This IC50 lies about 3.8-fold higher than the previous one.

For the compound `COc1cccc(-c2cc(O)c3cc4c(cc3n2)OCO4)c1`, the IC50 is 575 nM. Against the preceding compound, the IC50 is about 6.3-fold lower.

For the compound `Cc1ccc(-c2cc(O)c3cc(C)cnc3n2)cc1`, the IC50 was 2400 nM. Compared with the last compound, the IC50 is about 4.2-fold higher.

`Cc1cnc2nc(-c3cccc4ccccc34)cc(O)c2c1`: the IC50 was 550 nM.

In the case of `COc1cc2c(c(OC)c1OC)-c1ccc(SC)c(=O)cc1[C@@H](NCc1ccc(C#N)cc1)CC2`, the IC50 was 2510 nM.

Compound `COc1cc2c(c(OC)c1OC)-c1ccc(SC)c(=O)cc1[C@@H](OC(=O)c1cccnc1)CC2` showed an IC50 of 759 nM.

`Cc1cccc(-c2cc(O)c3ccc(C)nc3n2)c1` had an IC50 of 1910 nM.

For `Cc1ccc2c(O)cc(-c3cccc4ccccc34)nc2n1`, it took 661 nM to reach half-maximal inhibition (IC50).

In the case of `Cc1cccc(-c2cc(O)c3cccnc3n2)c1`, the IC50 is 3310 nM.

Consider `Cc1ccc2c(O)cc(-c3ccc4ccccc4c3)nc2n1`, for which 5130 nM corresponded to half-maximal inhibition (IC50). This IC50 lies about 1.5-fold higher than the previous one.

`Cc1cnc2nc(-c3cccc(Cl)c3)cc(O)c2c1`: half-maximal inhibition (IC50) was put at 724 nM.

With `Oc1cc(-c2ccccc2F)nc2ccc(N3CCCC3)cc12`, the IC50 is 457 nM. This IC50 is about 1.6-fold lower than that of the compound before.

In turn, `COc1cc2c(c(OC)c1OC)-c1ccc(SC)cc1[C@H](OC(=O)c1ccccc1)CC2` showed an IC50 of 2690 nM.

As for `COc1cc2c(c(OC)c1O)-c1ccc(SC)c(=O)cc1[C@@H](NC(C)=O)CC2`, the IC50 is 1510 nM.

Consider `Cc1cc(C)c2c(O)cc(-c3cccc4ccccc34)nc2n1`, for which the IC50 is 776 nM.

As for `COc1cccc(-c2cc(O)c3cc(C)cnc3n2)c1`, the IC50 is 794 nM.

On to `COc1cccc(-c2cc(O)c3c(C)cc(C)nc3n2)c1`, for which the IC50 is 871 nM.

For `Cc1ccnc2nc(-c3ccc4ccccc4c3)cc(O)c12`, the IC50 is 1820 nM. Compared with the last compound, the IC50 is about 2.1-fold higher.

With `COc1cc2c(c(OC)c1OC)-c1ccc(SC)cc1[C@H](OC(=O)c1cccnc1)CC2`, the IC50 was 2400 nM.

Consider `Cc1ccc2c(=O)cc(-c3cccc(F)c3)[nH]c2n1`, for which the IC50 was 525 nM.

In turn, `Oc1cccc(-c2cc(O)c3cc4c(cc3n2)OCO4)c1` showed a concentration for half-maximal inhibition (IC50) of 468 nM. This IC50 and that of the compound before are within 1.5-fold of each other.

On to `COc1cccc(-c2cc(O)c3c(Br)ccnc3n2)c1`, for which the IC50 was 1510 nM.

For the compound `COc1cccc([C@H]2CC(=O)c3cc4c(cc3N2)OCO4)c1`, the IC50 was 2340 nM.

In turn, `COc1ccc2c(c1)C(NC(C)=O)CCc1cc(OC)c(OC)c(OC)c1-2` (configuration not stated) had an IC50 of 1510 nM.

Compound `Cc1cnc2nc(-c3sccc3C)cc(O)c2c1` gave a 50% inhibitory concentration (IC50) of 3800 nM.

`Cc1cnc2nc(-c3ccc(Cl)cc3)cc(O)c2c1` showed an IC50 of 2000 nM. This IC50 lies about 1.9-fold lower than the previous one.

As for `COc1cc2c(c(OC)c1OC)-c1ccc(SC)cc1[C@@H](OC(C)=O)CC2`, the concentration for half-maximal inhibition (IC50) is 2820 nM.

`COc1cc2c(c(OC)c1OC)-c1ccc(SC)cc1[C@@H](O)C=C2`: the IC50 was 1820 nM.

`Oc1cc(-c2cccc(F)c2)nc2cc3c(cc12)OCO3` gave an IC50 of 525 nM.

The compound `Oc1cc(-c2cccc(Cl)c2)nc2cc3c(cc12)OCO3` showed an IC50 of 372 nM.

The compound `COc1ccc2c(c1)CCCc1cc(OC)c(OC)c(OC)c1-2` showed an IC50 of 1910 nM. Compared with the last compound, the IC50 is about 5.1-fold higher.

Take `COc1cccc(-c2cc(O)c3cc(N4CCOCC4)ccc3n2)c1`: the IC50 was 363 nM.

As to `COc1cc2c(c(OC)c1OC)-c1ccc(SC)cc1[C@H](OC(C)=O)CC2`, the IC50 was 3090 nM.

With `COc1cc2c(c(OC)c1OC)-c1ccc(SC)c(=O)cc1[C@@H](NC(=O)CC(C)=O)CC2`, the IC50 was 1410 nM.

`Cc1ccc2c(O)cc(-c3cc(C)sc3C)nc2n1` showed an IC50 of 4790 nM.

Compound `COc1c(O)cc2c(c1OC)-c1ccc(SC)c(=O)cc1[C@@H](NC(=O)CC(C)=O)CC2` showed an IC50 of 1700 nM.

`COc1c(O)cc2c(c1OC)-c1ccc(SC)c(=O)cc1[C@@H](NC(C)=O)CC2C=O` (some centres not stated) had an IC50 of 2820 nM.

For `COc1ccc2c(c1)C=CCc1cc(OC)c(OC)c(OC)c1-2`, the IC50 was 2190 nM.

In turn, `CNc1cccc(-c2cc(O)c3cc4c(cc3n2)OCO4)c1` had an IC50 of 646 nM.

`COC(=O)c1ccc2c(c1)C(NC(C)=O)CCc1cc(OC)c(OC)c(OC)c1-2` (configuration not stated) had an IC50 of 1410 nM.

Regarding `Cc1ccc2c(O)cc(-c3ccc(Cl)cc3)nc2n1`, inhibition was half-maximal at 11000 nM (IC50).

`COc1cc2c(c(OC)c1OC)-c1ccc(SC)c(=O)cc1[C@@H](OC(=O)c1ccncc1)CC2` showed an IC50 of 562 nM. This IC50 is about 20-fold lower than that of the compound before.

In turn, `COc1ccccc1-c1cc(O)c2cc(C)cnc2n1` showed an IC50 of 18200 nM.

For the compound `Cc1cnc2nc(-c3ccc4ccccc4c3)cc(O)c2c1`, the IC50 was 2090 nM.

With `Oc1cc(-c2ccc3ccccc3c2)nc2ncc(Cl)cc12`, the IC50 is 2510 nM.

Compound `Cc1ccc2c(O)cc(-c3ccsc3)nc2n1` had an IC50 of 7940 nM.

For the compound `Oc1cc(-c2cccc(Cl)c2)nc2ncccc12`, the IC50 is 1510 nM.

The compound `Oc1cc(-c2ccc3ccccc3c2)nc2ncccc12` gave an IC50 of 14100 nM. This IC50 is about 9.3-fold higher than that of the compound before.

Take `COc1cc2c(c(OC)c1OC)-c1ccc(SC)cc1[C@@H](OC(=O)c1cccnc1)CC2`: the midpoint of inhibition, the IC50, lay at 4790 nM. This IC50 lies about 2.9-fold lower than the previous one.

With `COc1cc2c(c(OC)c1OC)-c1ccc(SC)c(=O)cc1[C@@H](COC(=O)c1cccc(C#N)c1)C2`, it took 3020 nM to reach half-maximal inhibition (IC50). Compared with the last compound, the IC50 is about 1.6-fold lower.

Turning to `Cc1ccnc2nc(-c3ccc(Cl)cc3)cc(O)c12`, the IC50 is 4790 nM.

`Oc1cc(-c2cccs2)nc2cc3c(cc12)OCO3` gave an IC50 of 2190 nM.

`COc1cc2c(c(OC)c1OC)-c1ccc(SC)c(=O)cc1[C@@H](COC(=O)c1cccc(F)c1)C2` gave an IC50 of 3390 nM.
